The values below come from US4104390A, “Thieno [2,3-c] and [3,2-c] pyridines” (Parcor, priority 1976, dated 1978).

Experiment [1] deals with carrageenin-induced localized edema. The experiment in a line: Carrageenin-induced localized edema method. Type of experiment: in vivo. Conditions: Rattus norvegicus, po, rats, 100 mg/kg orally at -1, 0, 1 and 2.5 hours. As for the experimental part: (a) Carrageenin-induced localized edema method
0.1 ml of a 1% carrageenin solution is injected in the metatarsal flexor muscles of the right hind limb of rats at time 0. The animals of the treated group are additionally orally administered 100 mg/kg of the test derivative, respectively one hour prior to injection of the phlogogenic agent, simultaneously with said injection, and then 1 hour and 2.5 hours thereafter. The determinations effected by means of a ROCH micrometer at times 0, 1 hour, 2 hours, 3 hours and 5 hours after carrageenin administration make it possible to determine, as a function of time, the percent anti-inflammatory activity with respect to the reference group.
(In general: Carrageenan injected into the paw causes an acute inflammation.)

Experiment [2] has as its system collagen-induced blood-platelet aggregation. The experiment in a line: Collagen-induced blood-platelet aggregation. The conditions noted are these: Rattus norvegicus, po; rats, 100 mg/kg orally, 3 hours after treatment, collagen (bovine tendon extract), with respect to control group; read-out: Percent inhibition of blood-platelet aggregation, Collagen. Format: in vivo, Wistar rats. The procedure: (§1) Blood is taken from the jugular vein of Wistar rats. From this citrated blood, and after centrifugation, is reconstituted a plasma containing 600,000 ± 20,000 blood-platelets per ml which is used in all aggregation determinations.
(§2) 0.4 ml plasma is placed in a siliconized tube provided with a magnet bar, also siliconized. The tube is introduced into an aggregometer coupled with an apparatus for recording optical density variations. When light transmission has reached a stable value, 0.5 ml of a solution containing 10 μM A.D.P. (Adenosine-Di-Phosphate) is introduced into the tube.
(§3) Blood-platelet aggregation causes an increase of light transmission followed by a decrease subsequent to the deaggregation phase.
(§4) The maximal optical density variation thus determined characterizes the intensity of the aggregation.
The A.D.P. solution is substituted with a collagen solution (bovine tendon extract).
(§5) Different groups of 20 rats are used, each group being orally administered a test derivative at a dosage of 100 mg/kg.

The test system of experiment [3] is ovalbumen-induced systemic edema. The experiment in a line: Ovalbumen-induced systemic edema method. Type of experiment: in vivo. The conditions noted are these: Rattus norvegicus, po, rats, 100 mg/kg orally 1 hour before and with ovalbumen. The procedure:
(b) Ovalbumen-induced systemic edema method
Simultaneous injection of 1 ml ovalbumen and 0.5 ml of a 1% aqueous Evans Blue solution is effected in rats. On the other hand, the animals of the treated group are administered orally 100 mg/kg of the test derivative one hour prior to ovalbumen administration and simultaneously with said administration. The intensity of the phenomenon thus induced is scored according to a scale from 1 to 5 depending on the progress of the inflammatory syndrome. The mean intensity of the edem and the percent decrease of the edema reaction with respect to the control group are thus determined as a function of time.

The test system of experiment [4] is A.D.P.-induced blood-platelet aggregation. Nature of the experiment: A.D.P.-induced blood-platelet aggregation. Format: in vivo, Wistar rats. Conditions: Rattus norvegicus, po; rats, 100 mg/kg orally, 3 hours after treatment, 10 μM A.D.P. solution, with respect to control group; read-out: Percent inhibition of blood-platelet aggregation, A.D.P. The procedure: as §1, §2, §3, §4, §5

Setting [5] is: 1 hour after carrageenin, read-out: Percent anti-inflammatory activity after 1 hour.
[6] abbreviates: 2 hours after carrageenin, read-out: Percent anti-inflammatory activity after 2 hours.
[7] abbreviates: 3 hours after carrageenin, read-out: Percent anti-inflammatory activity after 3 hours.
Where [8] appears, read: 5 hours after carrageenin, read-out: Percent anti-inflammatory activity after 5 hours.
Setting [9] is: 2 hours after ovalbumen, read-out: Percent anti-inflammatory activity after 2 hours.
[10] abbreviates: 3 hours after ovalbumen, read-out: Percent anti-inflammatory activity after 3 hours.

Like-named read-outs stand apart in the source and are kept apart here.

The term inhibition denotes how much of the control response was suppressed. Regarding `c1ccc(C2CNCc3ccsc32)cc1` (stereo not shown) [derivative n°4, 7-Phenyl-4,5,6,7-tetrahydro-thieno[3,2-c]pyridine], the inhibition in vivo at 100 mg/kg is 38% in experiment [1] (setting [5]); 44% in experiment [1] (setting [6]); 49% in experiment [1] (setting [7]); 53% in experiment [1] (setting [8]); 54% in experiment [3] (setting [9]); 62% in experiment [3] (setting [10]). Further, the inhibition at 100 mg/kg was 95% in experiment [2] and 64% in experiment [4].

Turning to `Clc1ccccc1CN1Cc2sccc2C(c2ccccc2)C1` (stereo not shown) [derivative n°11, 6-o.Chlorobenzyl-4-phenyl-4,5,6,7-tetrahydrothieno[2,3-c]pyridine], the inhibition in vivo at 100 mg/kg in experiment [1] (setting [5]) turned out to be 39%; in experiment [1] (setting [6]), 45%; in experiment [1] (setting [7]), 49%; in experiment [1] (setting [8]), 55%; in experiment [3] (setting [9]), 51%; in experiment [3] (setting [10]), 58%. For the same compound, the inhibition at 100 mg/kg in experiment [2] is 91.2%; in experiment [4], 62.8%.

With `N#Cc1ccccc1CN1Cc2ccsc2C(c2ccccc2)C1` (stereo not shown) [derivative n°26], the inhibition in vivo at 100 mg/kg in experiment [1] (setting [5]) is 44%; in experiment [1] (setting [6]) it was 49%; in experiment [1] (setting [7]), 52%; in experiment [1] (setting [8]) it was 56%; in experiment [3] (setting [9]), 48%; in experiment [3] (setting [10]), 54%. Besides, the inhibition at 100 mg/kg in experiment [2] was 90.2%; in experiment [4], 60.9%.

With `COc1cc(CN2Cc3sccc3C(c3ccccc3)C2)cc(OC)c1OC` (stereo not shown) [derivative n°14, 4-Phenyl-6-(3,4,5-trimethoxy-benzyl)-4,5,6,7-tetrahydro-thieno[2,3-c]pyridine], the inhibition in vivo at 100 mg/kg in experiment [1] (setting [5]) worked out at 37%; in experiment [1] (setting [6]) it was 44%; in experiment [1] (setting [7]), 49%; in experiment [1] (setting [8]) it was 54%; in experiment [3] (setting [9]), 43%; in experiment [3] (setting [10]), 52%. Besides, the inhibition at 100 mg/kg in experiment [2] was determined as 93.9%; in experiment [4], 64.1%.

In the case of `Clc1ccccc1CN1Cc2ccsc2C(c2ccccc2)C1` (stereo not shown) [derivative n°19, 5-o.Chlorobenzyl-7-phenyl-4,5,6,7-tetrahydro-thieno[3,2-c]pyridine], the inhibition in vivo at 100 mg/kg in experiment [1] (setting [5]) came to 47%; in experiment [1] (setting [6]), 53%; in experiment [1] (setting [7]), 54%; in experiment [1] (setting [8]) it was 56%; in experiment [3] (setting [9]) it was 49%; in experiment [3] (setting [10]) it was 57%. In addition, the inhibition at 100 mg/kg came to 93.7% in experiment [2] and 62.3% in experiment [4].

Regarding `CN1Cc2ccsc2C(c2ccccc2)C1` (stereo not shown) [derivative n°6, 5-Methyl-7-phenyl-4,5,6,7-tetrahydro-thieno[3,2-c]pyridine], the inhibition in vivo at 100 mg/kg came to 45% in experiment [1] (setting [5]); 52% in experiment [1] (setting [6]); 56% in experiment [1] (setting [7]); 58% in experiment [1] (setting [8]); 47% in experiment [3] (setting [9]); 55% in experiment [3] (setting [10]). For the same compound, the values for the inhibition at 100 mg/kg in experiment [2] and in experiment [4] were 90.4% and 61.7%, respectively.

In the case of `N#Cc1ccccc1CN1Cc2sccc2C(c2ccccc2)C1` (stereo not shown) [derivative n°8, 6-o.Cyanobenzyl-4-phenyl-4,5,6,7-tetrahydro-thieno[2,3-c]pyridine], the inhibition in vivo at 100 mg/kg in experiment [1] (setting [5]) is 42%; in experiment [1] (setting [6]), 49%; in experiment [1] (setting [7]) it was 53%; in experiment [1] (setting [8]), 56%; in experiment [3] (setting [9]), 46%; in experiment [3] (setting [10]), 54%. For the same compound, the results for the inhibition at 100 mg/kg in experiment [2] and in experiment [4] were 92.5% and 63.2%, respectively.

For the compound `c1ccc(CCN2Cc3sccc3C(c3ccccc3)C2)cc1` (stereo not shown) [derivative n°25, 6-Phenethyl-4-phenyl-4,5,6,7-tetrahydro-thieno[2,3-c]pyridine], the inhibition in vivo at 100 mg/kg amounted to 47% in experiment [1] (setting [5]); 52% in experiment [1] (setting [6]); 56% in experiment [1] (setting [7]); 60% in experiment [1] (setting [8]); 44% in experiment [3] (setting [9]); 51% in experiment [3] (setting [10]). Further, the inhibition at 100 mg/kg in experiment [2] came to 93.8%; in experiment [4] it was 64.1%.

Regarding `Fc1ccccc1CN1Cc2sccc2C(c2ccccc2)C1` (stereo not shown) [derivative n°13, 6-o.Fluorobenzyl-4-phenyl-4,5,6,7-tetrahydrothieno[2,3-c]pyridine], the inhibition in vivo at 100 mg/kg in experiment [1] (setting [5]) came out at 46%; in experiment [1] (setting [6]), 51%; in experiment [1] (setting [7]), 55%; in experiment [1] (setting [8]), 57%; in experiment [3] (setting [9]) it was 43%; in experiment [3] (setting [10]), 50%. Further, the inhibition at 100 mg/kg in experiment [2] worked out at 94.8%; in experiment [4], 64.3%.

For the compound `CCCCN1Cc2ccsc2C(c2ccccc2)C1` (stereo not shown) [derivative n°21, 5-Butyl-7-phenyl-4,5,6,7-tetrahydro-thieno[3,2-c]pyridine], the inhibition in vivo at 100 mg/kg in experiment [1] (setting [5]) stood at 38%; in experiment [1] (setting [6]), 44%; in experiment [1] (setting [7]), 46%; in experiment [1] (setting [8]), 49%; in experiment [3] (setting [9]) it was 51%; in experiment [3] (setting [10]), 57%. The results for the inhibition at 100 mg/kg in experiment [2] and in experiment [4] were 94% and 62.2%, respectively.

Regarding `COC(=O)c1ccccc1CN1Cc2sccc2C(c2ccccc2)C1` (stereo not shown) [derivative n°15, 6-o.Methoxycarbonylbenzyl-4-phenyl-4,5,6,7-tetrahydro-thieno[2,3-c]pyridine], the inhibition in vivo at 100 mg/kg in experiment [1] (setting [5]) worked out at 39%; in experiment [1] (setting [6]) it was 47%; in experiment [1] (setting [7]), 50%; in experiment [1] (setting [8]), 54%; in experiment [3] (setting [9]), 54%; in experiment [3] (setting [10]), 62%. For the same compound, the results for the inhibition at 100 mg/kg in experiment [2] and in experiment [4] were 92.3% and 61.7%, respectively.

Consider `CC1C(c2ccccc2)c2sccc2CN1Cc1ccccc1Cl` (stereo not shown) [derivative n°23, 5-o.Chlorobenzyl-6-methyl-7-phenyl-4,5,6,7-tetrahydro-thieno[3,2-c]pyridine], for which the inhibition in vivo at 100 mg/kg in experiment [1] (setting [5]) was found to be 39%; in experiment [1] (setting [6]) it was 44%; in experiment [1] (setting [7]) it was 48%; in experiment [1] (setting [8]), 52%; in experiment [3] (setting [9]), 47%; in experiment [3] (setting [10]) it was 54%. Moreover, the inhibition at 100 mg/kg in experiment [2] was 94.5%; in experiment [4] it was 64.8%.

As for `COC(=O)c1ccccc1CN1Cc2ccsc2C(c2ccccc2)C1` (stereo not shown) [derivative n°28, 5-o.Methoxycarbonylbenzyl-7-phenyl-4,5,6,7-tetrahydro-thieno[3,2-c]pyridine], the inhibition in vivo at 100 mg/kg in experiment [1] (setting [5]) was found to be 41%; in experiment [1] (setting [6]) it was 47%; in experiment [1] (setting [7]) it was 51%; in experiment [1] (setting [8]), 53%; in experiment [3] (setting [9]), 45%; in experiment [3] (setting [10]), 52%. The figures for the inhibition at 100 mg/kg in experiment [2] and in experiment [4] were 92.2% and 62.3%, respectively.

For `CC1C(c2ccccc2)c2sccc2CN1Cc1ccc([N+](=O)[O-])cc1` (stereo not shown) [derivative n°22, 6-Methyl-5-p.nitrobenzyl-7-phenyl-4,5,6,7-tetrahydro-thieno[3,2-c]pyridine], the inhibition in vivo at 100 mg/kg in experiment [1] (setting [5]) came to 41%; in experiment [1] (setting [6]) it was 49%; in experiment [1] (setting [7]), 53%; in experiment [1] (setting [8]), 56%; in experiment [3] (setting [9]), 50%; in experiment [3] (setting [10]) it was 57%. In addition, the figures for the inhibition at 100 mg/kg in experiment [2] and in experiment [4] were 94.6% and 63.4%, respectively.
